Consider eleven compounds from patent US20240425515A1, “COMPOUND OF THE 7A,8,9,10,11,11A-HEXAHYDRO-1H,7H-PYRANO[2,3-C]XANTHENE TYPE, METHOD OF PREPARATION THEREOF, INTERMEDIATES THEREOF AND THERAPEUTIC APPLICATIONS THEREOF” (CENTRE NATIONAL DE LA RECHERCHE SCIENTIFIQUE, priority 2021, published 2024).

Molecules are shown by their SMILES.

Data set [1] addresses ORD domain (OSBP-Related Domain) of the protein OSBP (Homo sapiens (Human), UniProt P22059). The data set can be described thus: Inhibition of DHE transport between liposomes catalyzed by the purified ORD domain of OSBP (FRET, robotized assay). The format is biochemical. Particulars: purified ORD domain 200 nM, liposomes 130 μM, 37° C., compound 50 nM to 3 μM, triplicate; read-out: Affinity for the target OSBP (Ki). As to the method: Measurement of the inhibitory activity on OSBP is carried out by a robotized assay in the ORD domain (OSBP-Related Domain, in English) purified of the protein OSBP. The measurements are carried out according to a protocol using two preparations of liposomes: • The donor liposomes (A) contain a fluorescent sterol (DHE (dehydroergosterol)); • The acceptor liposomes (B) contain a fluorescent lipid (dansyl PE (1,2-dioleoyl-sn-glycero-3-phosphoethanolamine-N-(5-dimethylamino-1-naphthalenesulfonyl) (ammonium salt)) whose excitation spectrum covers the emission spectrum of DHE.
Transport of DHE from liposomes A to liposomes B catalyzed by the ORD domain is accompanied by a FRET signal between DHE and Dansyl-PE. Based on this signal, the kinetics of transport can be measured in real time. This measurement of fluorescence is carried out on a microplate in a TECAN Infinite 1000 Pro instrument (temperature=37° C.). At the beginning, each measurement well contains liposomes B (130 μM), ORD domain (200 nM) and the test compound. At time t=5 min, liposomes A (130 μM) are added to start the exchange reaction. Each compound is tested in triplicate for final concentrations from 50 nM to 3 μM. The time constant (k) obtained for the kinetics in each case is then represented as a function of the concentration of the analog. From this representation, an inhibition constant is determined for each compound. The affinity constants Ki are classified as follows: • Very strong affinity Ki<10 nM • Good affinity Ki from 10 to 100 nM • Low affinity Ki from 100 to 2000 nM
The compounds, other than the prodrugs, having a Ki<100 nM are regarded as active on OSBP.

Data set [2] concerns lung cancer cells A549. The experiment in a line: Cytotoxicity on A549, CellTiter Glo viability after 72 h. It is filed as cell-based. The note with it: Homo sapiens, A549, 72 h. As to the method:
(§1) The lines U87-MG and A549 were obtained from the American Type Culture Collection (Rockville, MD, USA) and were cultured according to the supplier's instructions. The human glioblastoma cells U87-MG were cultured in Dulbecco […] (DMEM) containing 10% of FCS and 1% of L-glutamine. The lung cancer cells A549 were cultured in RPMI1640 medium containing 10% of FCS and 1% of L-glutamine. The cell lines were maintained at 37° C. in a humidified atmosphere containing 5% CO2. The products were tested at 10 concentrations in triplicate and the cellular viability was evaluated after 72 h of treatment using the CellTiter Glo assay (Promega), which allows the number of live cells to be measured by luminescence (quantification of ATP).
(§2) Thus, the cells were seeded in 96-well plates (2.5×10^3 cells/well) each containing 90 μL of growth medium. After culture for 24 hours, the wells were supplemented with 10 μL of medium containing ten decreasing concentrations of the test compound dissolved in DMSO (less than 0.1% in each preparation). After incubation for 72 h, 100 μL of Cell Titer GLo reagent was added in the space of 15 min before quantifying the luminescence emitted using a microplate reader. The dose-response curve was analyzed using Graph Prism software and the activity of the molecules is expressed in the form of IC50.

Data set [3] has as its system human glioblastoma cells U87-MG. The data set can be described thus: Cytotoxicity on U87-MG, CellTiter Glo viability after 72 h. The format is cell-based. Particulars: U-87 MG. As to the method: as §1, §2
Data set [4] can be described thus: Stability in mouse plasma (UPLC-MS/MS). It is filed as in vitro ADME. The note with it: 2.5 μM. The protocol:
(§3) The compounds are placed in mouse plasma and mouse microsomes, and their stability is evaluated by monitoring by UPLC-MS/MS.
(§4) For plasma stability, the concentration tested is 2.5 μM and the incubation volume is 50 μL. The incubation times are 0, 15, 30, 45, 60 and 120 minutes. Protein precipitation is then performed on the samples, and then the latter are analyzed by UPLC-MS/MS. The percentage of the compound remaining as well as its elimination half-life are thus obtained. For the metabolic stability in microsomes, the concentration of test compound is 2.5 μM, and the incubation volume is 400 μL. The concentration of mouse microsomes is 0.5 mg/mL. The incubation times are 0, 15, 30 and 45 minutes. The cofactor used is NADPH. Two negative controls are carried out, one without microsomes and without cofactor at 0 and 45 minutes, and one without cofactor and with microsome at 0 and 45 minutes. A positive control is carried out in the presence of diphenhydramine. The samples are analyzed by LC-MS/MS. The intrinsic clearance and the half-life are thus obtained.
(§5) LC-MS/MS is carried out on a UPLC Acquity™ coupled to a XEVO TQ-S(WATERS).
(§6) Liquid chromatography is carried out on an Acquity UPLC column BEH 1.7 μm, 2.1×50 mm with a gradient of 4 minutes water+0.1% […]/acetonitrile 95:5 to 100:0. The column temperature is +50° C. and the temperature of the injector is +4° C. Acquisition in mass spectrometry is performed by MRM (Multiple Reaction Monitoring), with positive electrospray ionization.

A short description of data set [5]: Metabolic stability in mouse hepatic microsomes (LC-MS/MS). It is filed as in vitro ADME. The note with it: mouse microsomes 0.5 mg/mL, 2.5 μM, NADPH. The protocol:
as §3, §4, §5, §6

Chain of ORD domain (OSBP-Related Domain) of the protein OSBP (P22059 401-807): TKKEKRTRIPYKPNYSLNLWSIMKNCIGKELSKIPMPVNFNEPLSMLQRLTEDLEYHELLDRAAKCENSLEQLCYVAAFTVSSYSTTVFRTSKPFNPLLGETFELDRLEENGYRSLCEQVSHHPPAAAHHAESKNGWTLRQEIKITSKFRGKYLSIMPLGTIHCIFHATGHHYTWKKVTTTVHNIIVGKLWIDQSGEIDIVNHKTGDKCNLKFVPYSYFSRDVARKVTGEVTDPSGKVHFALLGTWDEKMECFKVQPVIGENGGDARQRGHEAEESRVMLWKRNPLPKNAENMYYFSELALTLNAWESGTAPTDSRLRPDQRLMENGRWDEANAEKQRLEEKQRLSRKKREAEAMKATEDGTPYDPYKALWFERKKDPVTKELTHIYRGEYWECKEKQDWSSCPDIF

As for `COCOc1cc2oc(-c3ccccc3)cc(=O)c2c2c1C[C@@H]1C(C)(C)[C@H](O)CC[C@@]1(C)O2` (racemic) [Compound 1, (7aR*9R*,11aR*)-9-hydroxy-6-(methoxymethoxy)-8,8,11a-trimethyl-3-phenyl-7a,8,9,10,11,11a-hexahydro-1H,7H-pyrano[2,3-c]xanthen-1-one], the inhibition constant (Ki) in data set [1] is below 0.01 µM. Further, the IC50 in data set [2] came out at 5.08 µM; in data set [3] it was 0.54 µM.

Turning to `COCOc1ccc(-c2oc3cc(OCOC)c4c(c3c(=O)c2OCOC)O[C@]2(C)CC[C@@H](O)C(C)(C)[C@H]2C4)cc1` [Compound 10, (7aR,9R,11aR)-9-hydroxy-2,6-bis(methoxymethoxy)-3-(4-(methoxymethoxy)phenyl). 8,8,11a-trimethyl-7a,8,9,10,11,11a-hexahydro-1H,7H-pyrano[2,3-c]xanthen-1-one], the “metabolic stability in mouse plasma at 120 minutes (percentage of compound remaining)” value in data set [4] turned out to be 90%. It took 4.34 µM to reach half-maximal inhibition in data set [3] (IC50). Also, in data set [5], the “clearance in microsomal medium (intrinsic clearance)” value (shortened to “clearance in microsomal medium”) was 52 μL/min/mg of protein and the “metabolic stability in mouse microsomes” value is 99%.

Turning to `CC1(C)[C@@H](O)CC[C@]2(C)Oc3c(c(O)cc4oc(-c5ccccc5)cc(=O)c34)C[C@@H]12` [Compound 7, (7aS,9S,11aS)-6,9-dihydroxy-8,8,11a-trimethyl-3-phenyl-7a,8,9,10,11,11a-hexahydro-1H,7H-pyrano[2,3-c]xanthen-1-one], in data set [1], the inhibition constant Ki was below 0.01 µM. The compound also came in with a 50% inhibitory concentration (IC50) in data set [3] of 1.89 µM.

Take `CC1(C)[C@H](O)CC[C@@]2(C)Oc3c(c(O)cc4oc(-c5ccc(O)cc5)cc(=O)c34)C[C@H]12` [Compound 9, (7aR,9R,11aR)-6,9-dihydroxy-3-(4-hydroxyphenyl)-8,8,11a-trimethyl-7a,8,9,10,11,11a-hexahydro-1H,7H-pyrano[2,3-c]xanthen-1-one]: the “metabolic stability in mouse plasma at 120 minutes (percentage of compound remaining)” value in data set [4] was 100%. Also, half-maximal inhibition in data set [3] (IC50) was put at 3.78 µM. In data set [5], the “clearance in microsomal medium” value is listed as 26 μL/min/mg of protein and the “metabolic stability in mouse microsomes” value was determined as 100%.

`COCOc1ccc(-c2cc(=O)c3c4c(c(OCOC)cc3o2)C[C@@H]2C(C)(C)[C@H](O)CC[C@@]2(C)O4)cc1` [Compound 8, (7aR,9R,11aR)-9-hydroxy-6-(methoxymethoxy)-3-(4-(methoxymethoxy)phenyl)-8,8,11a-trimethyl-7a,8,9,10,11,11a-hexahydro-1H,7H-pyrano[2,3-c]xanthen-1-one]: in data set [1], the inhibitory constant (Ki) lay in the range of 0.01 to 0.1 µM. In data set [3], the half-inhibitory concentration (IC50) turned out to be 0.16 µM.

Consider `COCOc1cc2oc(-c3ccccc3)cc(=O)c2c2c1C[C@@H]1C(C)(C)[C@H](OCOC)CC[C@@]1(C)O2` (racemic) [Compound 2, (7aR*,9R*,11aR*)-6,9-bis(methoxymethoxy)-8,8,11a-trimethyl-3-phenyl-7a,8,9,10,11,11a-hexahydro-1H,7H-pyrano[2,3-c]xanthen-1-one], for which the inhibitory constant (Ki) in data set [1] lay within 0.1 to 2 µM. The concentration for half-maximal inhibition (IC50) in data set [2] and in data set [3] was above 10 µM each time.

On to `CC1(C)[C@H](O)CC[C@@]2(C)Oc3c(c(O)cc4oc(-c5ccc(O)cc5)c(O)c(=O)c34)C[C@H]12` [Compound 11, (7aR,9R,11aR)-2,6,9-trihydroxy-3-(4-hydroxyphenyl)-8,8,11a-trimethyl-7a,8,9,10,11,11a-hexahydro-1H,7H-pyrano[2,3-c]xanthen-1-one], for which the half-inhibitory concentration (IC50) in data set [2] worked out at 6.3 µM; in data set [3], 2.3 µM.

Regarding `CC1(C)[C@H](O)CC[C@@]2(C)Oc3c(c(O)cc4oc(-c5ccccc5)cc(=O)c34)C[C@H]12` [Compound 5, (7aR,9R,11aR)-6,9-dihydroxy-8,8,11a-trimethyl-3-phenyl-7a,8,9,10,11,11a-hexahydro-1H,7H-pyrano[2,3-c]xanthen-1-one], in data set [1], the inhibition constant (Ki) is below 0.01 µM. The half-inhibitory concentration (IC50) was 1.38 µM in data set [2] and 0.28 µM in data set [3].

Regarding `CC1(C)[C@H](O)CC[C@@]2(C)Oc3c(c(O)cc4oc(-c5ccccc5)cc(=O)c34)C[C@H]12` (racemic) [Compound 3, (7aR*,9R*,11aR*)-6,9-dihydroxy-8,8,11a-trimethyl-3-phenyl-7a,8,9,10,11,11a-hexahydro-1H,7H-pyrano[2,3-c]xanthen-1-one], the “metabolic stability in mouse plasma at 120 minutes (percentage of compound remaining)” value in data set [4] is given as 99%. Further, the Ki in data set [1] is below 0.01 µM. In addition, half-maximal inhibition in data set [2] (IC50) required 3.4 µM. In data set [3], this compound returned a half-inhibitory concentration (IC50) of 0.34 µM. In data set [5], the “clearance in microsomal medium” value was 152 μL/min/mg of protein and the “metabolic stability in mouse microsomes” value stood at 88%.

Turning to `COCOc1cc2oc(-c3ccccc3)cc(=O)c2c2c1C[C@@H]1C(C)(C)[C@H](O)CC[C@@]1(C)O2` [Compound 4, (7aR,9R,11aR)-9-hydroxy-6-(methoxymethoxy)-8,8,11a-trimethyl-3-phenyl-7a,8,9,10,11,11a-hexahydro-1H,7H-pyrano[2,3-c]xanthen-1-one], in data set [1], the Ki was in the range of 0.01 to 0.1 µM. Further, the concentration for half-maximal inhibition (IC50) in data set [3] worked out at 0.44 µM.

Regarding `COCOc1cc2oc(-c3ccccc3)cc(=O)c2c2c1C[C@H]1C(C)(C)[C@@H](O)CC[C@]1(C)O2` [Compound 6, (7aS,9S,11aS)-9-hydroxy-6-(methoxymethoxy)-8,8,11a-trimethyl-3-phenyl-7a,8,9,10,11,11a-hexahydro-1H,7H-pyrano[2,3-c]xanthen-1-one], in data set [1], the Ki was in the range of 0.1 to 2 µM. The values for the IC50 in data set [2] and in data set [3] were above 10 µM and 4.31 µM, respectively.
